This note sets out measurements from patent US20090298757A1, “OXYNTOMODULIN ANALOGUES AND THEIR EFFECTS ON FEEDING BEHAVIOUR” (Imperial Innovations Limited, priority 2005, published 2009).

“Also recorded” adds a separate entry of the source. Non-standard residues stand in square brackets, D forms with d. No end group written: not given here. *: point of attachment. Lauroyl = CCCCCCCCCCCC(=O)*

The assay has as its system C57BL/6 mice. Description: Food intake in fasted mice after injection of peptide. It counts as in vivo, mouse. Particulars: for Multiples of food inhibition Factor: Example 9, food intake during the first hour after injection, activity relative to oxm (1400 nmol/kg); for potency relative to oxyntomodulin: as mentioned in the examples section, times that of oxyntomodulin. How it is done:
Animals. All animal procedures were approved by the British Home Office Animals (Scientific Procedures) Act 1986 (Project License number 70/5516). Male C57BL/6 mice and male Wistar rats were maintained in individual cages under controlled temperature (21-23° C.) with ad libitum access to standard chow (RM1 diet, SDS Ltd, Witham, Essex, UK) and to water. The light cycle was 14 hours light and 10 hours dark with ‘dawn’ at 07:00, lights full on at 07:30, ‘dusk’ at 21:00 with lights off at 21:30. These times were fixed in the animal facility.
All animals were handled almost daily for on average nine days prior to the first study. During the acclimatization period, each animal received two saline injections at least two days apart in order to further acclimatize to the procedure on the study days.
Intra-peritoneal (IP) injections. IP injections were administered to mice via a 0.5 ml syringe with a 29-gauge needle (maximum injection volume 0.1 ml). Maximum volume administered IP was 0.1 ml.
Study protocol: C57BL/6 mice (20-35 g) were injected with the peptide under investigation following a 20-hour fast. Wistar rats were injected following a 24-hour fast. A pre-weighed quantity of chow was presented immediately after injection. The remaining food was measured at regular time intervals (e.g. 1, 2, 3, 4, 6, 8, 24 and 48 hours following injection) and food intake calculated.

Where [1] appears, read: Example 57, mice, 6 or 20 nmol/kg, vs saline.
The mark [2] stands for this setting: Example 6, mice, 2700 nmol/kg, 0-8 h.
[3] abbreviates: Example 7, mice, 1000 nmol/kg, 0-24 h.
The mark [4] stands for this setting: Example 1, fasted mice, 2700 nmol/kg by injection, intervals up to 32 h, vs saline and oxm.
The mark [5] stands for this setting: Example 11, mice, 100 nmol/kg, vs oxm(xx15-24).

In the case of “Ala2-oxm: oxm with Ser at residue 2 substituted by Ala (HAQGTFTSDYSKYLDSRRAQDFVQWLMNTKRNRNNIA; Oxyntomodulin; UniProt P01275 53-89, looked up, variant S2A)”, where the note is “Example 5, fasted mice, 2700 nmol/kg, 0-4 h, vs saline and oxm”, the food intake result is recorded as “does NOT significantly reduce food intake compared to saline”.

With “CH3—CO—NH—CRH—CO-Ser Gln Gly Thr Phe Thr Ser Asp Tyr Ser Lys Tyr Leu Asp Ser Arg Arg Ala Gln Asp Phe Val Gln Trp Leu Met Asn Thr Lys Arg Asn Arg Asn Asn Ile Ala [Acetyloxyntomodulin]”, the “onset of anorectic effect” value (Example 14, mice, 1400 mmol/kg (so in the source)) is reported as “later acting than that of oxyntomodulin”.

For “D-His Ala Gln Gly Thr Phe Thr Ser Asp Tyr Ser Lys Tyr Leu Asp Ser Arg Arg Ala Gln Asp Phe Val Gln Trp Leu Met Asn Thr Lys Arg Asn Arg Asn Asn Ile Ala (XAQGTFTSDYSKYLDSRRAQDFVQWLMNTKRNRNNIA; D-His at position 1; Oxm Analogue; D-His) [D-His-Ala2-oxm]”, the “Multiples of food inhibition Factor” value (mice) was 2.5. For the setting “Example 43, mice, food intake”, the minimum effective dose entry was “approximately 250 nmol/kg”. Also, the “effectiveness on food intake” value (Example 43, mice, various doses, vs oxm) is reported as “more effective than oxm”.

On to “D-His Ala Gln Gly Thr Phe Thr Ser Asp Tyr Ser Lys Tyr Leu Glu Glu Glu Ala Val Arg Leu Phe Ile Glu Trp Leu Lys Asn Gly Gly Pro Ser Ser Asn Asn Ile Ala ([dH]AQGTFTSDYSKYLEEEAVRLFIEWLKNGGPSSNNIA) [D-His1-Ala2-oxm(xx15-24)(xx27-33)]”, for which the “potency relative to oxyntomodulin” value is 1-4000 times. Further, the “duration of effect on food intake” value (Example 8, mice, 100 mmol/kg (so in the source)) is “especially long-acting”. The “Multiples of food inhibition Factor” value (mice) is on record as 1000-4000.

Regarding “D-His Ser Asp Gly Thr Phe Thr Ser Asp Tyr Ser Lys Tyr Leu Glu Glu Glu Val Val Arg Leu Phe Ile Gln Trp Leu Lys Asn Gly Gly Pro Ser Lys Asn Asn Ile Ala Ala Ala Glu Glu Lys-Lauroyl ([dH]SDGTFTSDYSKYLEEEVVRLFIQWLKNGGPSKNNIAAAEEK(Lauroyl))”, the cumulative food intake result under setting [1] is “markedly decreased cumulative food intake in comparison to the saline control”.

Turning to “D-His Ser Gln Gly Thr Phe Thr Ser Asp Tyr Ser Lys Tyr Leu Asp Ser Arg Arg Ala Gln Asp Phe Val Gln Trp Leu Lys Asn Gly Gly Pro Ser Ser Gly Ala Pro Pro Pro Ser ([dH]SQGTFTSDYSKYLDSRRAQDFVQWLKNGGPSSGAPPPS) [D-His-oxm26ex]”, for the setting “Example 13, mice, 1000 nmol/kg (FIG. 21d)”, the cumulative food intake entry is listed as “reduction in food intake in comparison to oxm26ex”.

Consider “D-Ser Ala Asp Gly Thr Phe Thr Ser Asp Tyr Ser Lys Tyr Leu Glu Glu Glu Ala Val Arg Leu Phe Ile Gln Trp Leu Lys Asn Gly Gly Pro Ser Lys Asn Asn Ile Ala Ala Ala Glu Glu Lys-Lauroyl”, for which, under setting [1], the cumulative food intake result was “markedly decreased cumulative food intake in comparison to the saline control”.

Take “Des-His-oxm: oxm analogue with substitution of the first amino acid (His 1) (SQGTFTSDYSKYLDSRRAQDFVQWLMNTKRNRNNIA; Oxyntomodulin; UniProt P01275 53-89, looked up, variant H1*)”: the food intake result (Example 12, fasted mice, 2700 nmol/kg, 0-4 h) is on record as “reduced food intake”. Where the note is “Example 12, fasted mice, 2700 nmol/kg, vs native oxm”, the “duration of action on food intake” value was “more sustained action than native oxm”.

For the substance “HSQGTFTSDYSKYLDSRRAQDFVQWLKNGGPSSGAPPPS [oxm26ex]”, the food intake result is, setting by setting: under setting [2], “potent and long-lasting effect on food intake”; under setting [3], “significantly inhibit feeding both compared to saline control and compared to the oxm-treated group”. Besides, the “duration of effect on food intake” value (Example 7, mice, 1000 nmol/kg, vs exendin) is listed as “not as long-lasting as those of exendin”.

As to “HSQGTFTSDYSKYLEEEAAQDFVQWLMNTKRNRNNIA [oxm(xx15-18)]”, the food intake result under setting [4] is “increased and prolonged inhibition of food intake compared to both saline and oxm”.

With “HSQGTFTSDYSKYLEEEAIRLFIEWLMNTKRNRNNIA [Ile19-oxm(xx15-24)]”, the “potency on food intake” value (Example 11, mice, 100 nmol/kg, 0-24 h, vs oxm(xx15-24)) is recorded as “equipotent with or slightly more potent than oxm(xx15-24)”. For the same substance, the “onset and duration of activity on food intake” value (“onset and duration of activity” below) runs as follows: under setting [5], “slightly delayed action as compared with oxm (xx15-24)”; (Example 11, mice, 100 nmol/kg, vs oxm(xx15-24), listed as SEQ ID NO: 34) “delayed onset”.

For the substance “HSQGTFTSDYSKYLEEEAVRLFIEWLMNTKRNRNNIA [oxm(xx15-24)]”, the “potency relative to oxyntomodulin” value stood at 400 times. Further, the food intake result under setting [4] was “greater and more prolonged appetite suppressant effect; also recorded: more potent effect on feeding than oxm”. For the same substance, the cumulative food intake entry (Example 2, mice, 300 nmol/kg, first 8 hours post-injection (FIG. 4c)) is “reduces food intake only slightly less than exendin over the first 8 hours post-injection”. Further, the “Multiples of food inhibition Factor” value (mice) was found to be 400. Further, where the note is “Example 27, mice, 100 nmol/kg”, the food intake entry is recorded as “most effective”.

Turning to “HSQGTFTSDYSKYLEEEAVRLFVQWLMNTKRNRNNIA [oxm(xx15-21)]”, the “potency relative to oxyntomodulin” value came to 200 times. The food intake result under setting [4] is “greater and more prolonged appetite suppressant effect”. In addition, where the note is “mice”, the “Multiples of food inhibition Factor” value was 200.

In the case of “HSQGTFTSDYSKYLEEEVVRLFIEWLMNTKRNRNNIA [18Val-oxm(xx15-24)]”, the “onset and duration of activity” value under setting [5] is reported as “delayed onset of activity as compared with oxm(xx15-24) whilst the activity is more prolonged”; the “onset and duration of activity” value (Example 11, mice, 100 nmol/kg, vs oxm(xx15-24), listed as SEQ ID NO: 31) is on record as “delayed onset”.

For HSQGTFTSDYSKYLEEEVVRLFVQWLMNTKRNRNNIA, the food intake result (Example 16, mice, 30 nmol/kg) was “reduction in food intake from 0 to 2 hours”.

Regarding “His Ser Gln Gly Thr Phe Thr Ser Asp Tyr Ser Lys Tyr Leu Asp Ser Arg Arg Ala Gln Asp Phe Val Gln Trp Leu Arg Asn Gly Gly Pro Ser Ser Asn Asn Ile Ala (HSQGTFTSDYSKYLDSRRAQDFVQWLRNGGPSSNNIA; Arg27-oxm(ex27-33))”, the food intake entry is “reduction in food intake from 0 to 1 hours” (Example 17, mice, 300 nmol/kg) and “reduce the effect of oxm(ex27-33) on food intake” (Example 30, mice, 1400 or 300 nmol/kg, vs oxm(ex27-33)).

Regarding “His Ser Gln Gly Thr Phe Thr Ser Asp Tyr Ser Lys Tyr Leu Asp Ser Arg Arg Ala Gln Asp Phe Val Gln Trp Leu Lys Asn Gly Gly Pro Asn Ser Asn Asn Ile Ala (HSQGTFTSDYSKYLDSRRAQDFVQWLKNGGPNSNNIA; Asn32-oxm(ex27-33))”, where the note is “Example 31, mice, 300 nmol/kg, vs oxm(ex27-33)”, the food intake entry is “reduces the effect of oxm(ex27-33) on food intake”.

With “His Ser Gln Gly Thr Phe Thr Ser Asp Tyr Ser Lys Tyr Leu Asp Ser Arg Arg Ala Gln Asp Phe Val Gln Trp Leu Lys Asn Gly Gly Pro Ser Ser Asn Asn Ile Ala (HSQGTFTSDYSKYLDSRRAQDFVQWLKNGGPSSNNIA; Oxm Analogue) [oxm(xx27-33)]”, the food intake result (Example 3, mice, 2700 nmol/kg, vs saline and oxm) was “increased and prolonged inhibition of food intake compared to both saline and oxm”. Further, for the setting “mice”, the “Multiples of food inhibition Factor” value was 7.

Take “His Ser Gln Gly Thr Phe Thr Ser Asp Tyr Ser Lys Tyr Leu Glu Glu Glu Ala Val Arg Leu Phe Ile Glu Trp Leu Lys Asn Gly Gly Pro Ser Ser Gly Ala Pro Pro Pro Ser [oxm(xx15-39)]”: the food intake result was “potent and long-lasting effect on food intake” under setting [2]; “significantly inhibit feeding both compared to saline control and compared to the oxm-treated group” under setting [3].
